Laboratory results reported in ChEMBL document CHEMBL4706659, “Design, synthesis and biological evaluation of novel 2,4-diaryl pyrimidine derivatives as selective EGFR inhibitors” (Eur J Med Chem, 2021).

What was measured:
[1] = tested on: PC-9; experiment: Antiproliferative activity against human PC-9 cells harboring EGFR L858R mutant by MTT assay; type: functional, cell-based
[2] = tested on: NCI-H292; experiment: Antiproliferative activity against human NCI-H292 cells harboring wild-type EGFR by MTT assay; type: functional, cell-based
[3] = biological target: Epidermal growth factor receptor (Homo sapiens, UniProt P00533, L858R); experiment: Inhibition of human recombinant GST-tagged EGFR L858R mutant expressed in baculovirus expression system using tyrosine 4 peptide as substrate after 60 mins in presence of ATP FRET based Z'-LYTE assay
[4] = tested on: L02; experiment: Cytotoxicity against human L02 cells assessed as reduction in cell viability by MTT assay; type: cell-based
[5] = Cytotoxicity against HEK293-A cells assessed as reduction in cell viability by MTT assay; type: cell-based; conditions: Homo sapiens
[6] = tested on: NCI-H1975; experiment: Antimigratory activity against human NCI-H1975 cells harboring EGFR T790M/L858R mutant assessed as inhibition of cell migration at 3 nM measured after 24 hrs by phase contrast microscopic analysis relative to control; type: functional
[7] = tested on: NCI-H1975; experiment: Antimigratory activity against human NCI-H1975 cells harboring EGFR T790M/L858R mutant assessed as inhibition of cell migration at 3 nM measured after 48 hrs by phase contrast microscopic analysis relative to control; type: functional
[8] = tested on: NCI-H1975; experiment: Antimigratory activity against human NCI-H1975 cells harboring EGFR T790M/L858R mutant assessed as inhibition of cell migration at 9 nM measured after 24 hrs by phase contrast microscopic analysis relative to control; type: functional
[9] = tested on: NCI-H1975; experiment: Antimigratory activity against human NCI-H1975 cells harboring EGFR T790M/L858R mutant assessed as inhibition of cell migration at 9 nM measured after 48 hrs by phase contrast microscopic analysis relative to control; type: functional
[10] = tested on: NCI-H1975; experiment: Induction of apoptosis in human NCI-H1975 cells harboring EGFR T790M/L858R mutant assessed as viable cells at 1 nM measured after 48 hrs by Annexin-V-FITC/propidium iodide staining based flow cytometry (reference value: 98.63%); type: functional; conditions: read-out: Activity
[11] = tested on: NCI-H1975; experiment: Induction of apoptosis in human NCI-H1975 cells harboring EGFR T790M/L858R mutant assessed as necrotic cells at 5 nM measured after 48 hrs by Annexin-V-FITC/propidium iodide staining based flow cytometry (reference value: […]); type: functional
[12] = tested on: NCI-H1975; experiment: Induction of apoptosis in human NCI-H1975 cells harboring EGFR T790M/L858R mutant assessed as early apoptotic cells at 10 nM measured after 48 hrs by Annexin-V-FITC/propidium iodide staining based flow cytometry (reference value: 0.82%); type: functional
[13] = tested on: NCI-H1975; experiment: Induction of apoptosis in human NCI-H1975 cells harboring EGFR T790M/L858R mutant assessed as viable cells at 1 nM measured after 72 hrs by Annexin-V-FITC/propidium iodide staining based flow cytometry (reference value: 98.66%); type: functional; conditions: read-out: Activity
[14] = tested on: NCI-H1975; experiment: Induction of apoptosis in human NCI-H1975 cells harboring EGFR T790M/L858R mutant assessed as early apoptotic cells at 1 nM measured after 72 hrs by Annexin-V-FITC/propidium iodide staining based flow cytometry (reference value: 0.72%); type: functional
[15] = tested on: NCI-H1975; experiment: Induction of apoptosis in human NCI-H1975 cells harboring EGFR T790M/L858R mutant assessed as late apoptotic cells at 1 nM measured after 72 hrs by Annexin-V-FITC/propidium iodide staining based flow cytometry (reference value: 0.13%); type: functional
[16] = tested on: NCI-H1975; experiment: Induction of apoptosis in human NCI-H1975 cells harboring EGFR T790M/L858R mutant assessed as necrotic cells at 1 nM measured after 72 hrs by Annexin-V-FITC/propidium iodide staining based flow cytometry (reference value: 0.49%); type: functional
[17] = tested on: NCI-H1975; experiment: Induction of apoptosis in human NCI-H1975 cells harboring EGFR T790M/L858R mutant assessed as early apoptotic cells at 5 nM measured after 72 hrs by Annexin-V-FITC/propidium iodide staining based flow cytometry (reference value: 0.72%); type: functional
[18] = tested on: NCI-H1975; experiment: Induction of apoptosis in human NCI-H1975 cells harboring EGFR T790M/L858R mutant assessed as late apoptotic cells at 5 nM measured after 72 hrs by Annexin-V-FITC/propidium iodide staining based flow cytometry (reference value: 0.13%); type: functional
[19] = tested on: NCI-H1975; experiment: Induction of apoptosis in human NCI-H1975 cells harboring EGFR T790M/L858R mutant assessed as necrotic cells at 10 nM measured after 72 hrs by Annexin-V-FITC/propidium iodide staining based flow cytometry (reference value: 0.49%); type: functional
[20] = tested on: NCI-H1975; experiment: Induction of mitochondrial membrane potential loss in human NCI-H1975 cells harboring EGFR T790M/L858R mutant assessed as cells with intact mitochondrial membrane potential at 1 nM measured after 24 hrs by JC1 staining based fluorescence microscopic analysis (reference value: 94.51%); type: functional
[21] = tested on: NCI-H1975; experiment: Induction of mitochondrial membrane potential loss in human NCI-H1975 cells harboring EGFR T790M/L858R mutant assessed as cell population with mitochondrial membrane potential collapse at 1 nM measured after 24 hrs by JC1 staining based fluorescence microscopic analysis (reference value: 5.49%); type: functional
[22] = Half life in Sprague-Dawley rat at 10 mg/kg, po administered as single dose; type: ADME, organism-based; conditions: in vivo
[23] = Cmax in Sprague-Dawley rat at 10 mg/kg, po administered as single dose; type: ADME, organism-based; design: route oral, dose 10 mg/kg; conditions: in vivo
[24] = AUC (0 to t) in Sprague-Dawley rat at 10 mg/kg, po administered as single dose; type: ADME, organism-based; design: dose 10 mg/kg; conditions: in vivo
[25] = Oral bioavailability in Sprague-Dawley rat at 10 mg/kg administered as single dose; type: ADME, organism-based; conditions: in vivo
[26] = Half life in Sprague-Dawley rat at 2 mg/kg, iv administered as single dose; type: ADME, organism-based; conditions: in vivo
[27] = Cmax in Sprague-Dawley rat at 2 mg/kg, iv administered as single dose; type: ADME, organism-based; design: route intravenous, dose 2 mg/kg; conditions: in vivo
[28] = AUC (0 to t) in Sprague-Dawley rat at 2 mg/kg, iv administered as single dose; type: ADME, organism-based; design: dose 2 mg/kg; conditions: in vivo
[29] = AUC (0 to infinity) in Sprague-Dawley rat at 2 mg/kg, iv administered as single dose; type: ADME, organism-based; design: route intravenous, time infinity, dose 2 mg/kg; conditions: in vivo
[30] = tested on: NCI-H1975; experiment: Antitumor activity against human NCI-H1975 cells harboring EGFR T790M/L858R mutant xenografted in nude mouse assessed as tumor volume at 15 mg/kg, po administered once daily for 7 days (reference value: 843 mm3); type: functional; conditions: time 7 day
[31] = tested on: NCI-H1975; experiment: Antitumor activity against human NCI-H1975 cells harboring EGFR T790M/L858R mutant xenografted in nude mouse assessed as tumor growth inhibition at 15 mg/kg, po administered once daily for 7 days relative to control; type: functional; conditions: Mus musculus, NCI-H1975, po, 168 h, time 7 day, read-out: TGI
[32] = Toxicity in nude mouse xenografted with human NCI-H1975 cells harboring EGFR T790M/L858R mutant assessed as mortality at 15 mg/kg, po administered once daily for 7 days relative to control; type: organism-based; conditions: in vivo, time 7 day, read-out: Activity
[33] = Toxicity in nude mouse xenografted with human NCI-H1975 cells harboring EGFR T790M/L858R mutant assessed as body weight loss at 15 mg/kg, po administered once daily for 7 days relative to control; type: organism-based; conditions: in vivo, 168 h, time 7 day

Epidermal growth factor receptor, sequence (P00533 25-1210 L858R limits assumed): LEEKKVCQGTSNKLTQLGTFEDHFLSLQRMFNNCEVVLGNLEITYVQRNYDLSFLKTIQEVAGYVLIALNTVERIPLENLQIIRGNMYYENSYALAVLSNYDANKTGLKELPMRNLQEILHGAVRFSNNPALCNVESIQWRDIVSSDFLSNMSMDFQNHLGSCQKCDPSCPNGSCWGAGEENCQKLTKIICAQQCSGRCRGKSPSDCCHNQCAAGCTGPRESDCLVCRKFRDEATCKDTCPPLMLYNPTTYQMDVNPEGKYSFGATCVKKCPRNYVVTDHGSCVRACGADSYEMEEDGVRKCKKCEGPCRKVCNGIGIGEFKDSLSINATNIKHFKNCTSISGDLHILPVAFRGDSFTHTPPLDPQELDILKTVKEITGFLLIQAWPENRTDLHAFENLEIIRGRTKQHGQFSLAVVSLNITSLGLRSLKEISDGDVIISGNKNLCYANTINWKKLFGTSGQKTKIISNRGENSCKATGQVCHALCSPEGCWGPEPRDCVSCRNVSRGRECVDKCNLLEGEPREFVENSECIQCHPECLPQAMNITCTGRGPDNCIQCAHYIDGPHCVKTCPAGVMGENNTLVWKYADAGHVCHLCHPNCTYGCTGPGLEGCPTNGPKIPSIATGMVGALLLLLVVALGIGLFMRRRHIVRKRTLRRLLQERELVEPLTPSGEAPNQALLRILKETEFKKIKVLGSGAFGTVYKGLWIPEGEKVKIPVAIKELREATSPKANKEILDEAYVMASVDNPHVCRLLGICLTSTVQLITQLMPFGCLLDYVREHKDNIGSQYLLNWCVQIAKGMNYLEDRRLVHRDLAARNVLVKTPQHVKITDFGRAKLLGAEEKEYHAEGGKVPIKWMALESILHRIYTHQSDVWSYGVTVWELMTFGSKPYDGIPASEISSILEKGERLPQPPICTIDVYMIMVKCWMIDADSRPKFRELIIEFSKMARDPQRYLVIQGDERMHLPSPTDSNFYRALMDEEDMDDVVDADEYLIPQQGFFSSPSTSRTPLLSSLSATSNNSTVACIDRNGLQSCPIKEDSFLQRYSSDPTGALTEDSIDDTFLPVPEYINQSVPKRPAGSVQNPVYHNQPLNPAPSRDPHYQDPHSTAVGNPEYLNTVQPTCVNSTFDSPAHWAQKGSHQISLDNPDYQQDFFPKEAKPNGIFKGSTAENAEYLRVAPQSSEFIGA

C=CC(=O)Nc1cc(Nc2nccc(-c3cn(C4CC4)c4ccccc34)n2)c(OC)cc1[S+]([O-])CCN(C)C (stereo not drawn)
IC50 [1]: 4 nM
IC50 [2]: 718 nM
IC50 [3]: 1.1 nM
IC50 [4]: 4670 nM
IC50 [5]: 3060 nM
inhibition at 0.003 µM [6]: 39%
inhibition at 0.003 µM [7]: 53%
inhibition at 0.009 µM [8]: 47%
inhibition at 0.009 µM [9]: 74%
viability at 0.001 µM [10]: 82%
Activity [11]: 7.42%
Activity [12]: 15.92%
viability at 0.001 µM [13]: 70.3%
Activity [14]: 17.25%
Activity [15]: 2.93%
Activity [16]: 9.52%
Activity [17]: 19.59%
Activity [18]: 17.07%
Activity [19]: 5.38%
Activity [20]: 80.71%
Activity [21]: 19.29%
half-life [22]: 2.51 h
Cmax [23]: 203 ng/mL
AUC(0-t) [24]: 676 ng·h/mL
bioavailability [25]: 40.4%
half-life [26]: 0.7 h
Cmax [27]: 503 ng/mL
AUC(0-t) [28]: 335 ng·h/mL
AUC(0-inf) [29]: 340 ng·h/mL
Activity [30]: 56 mm3
inhibition in vivo at 15 mg/kg [31]: 93.3%
mortality at 168 h [32]: < 5%
Activity [33]: < 5%
